# In ChEMBL document CHEMBL5579829, “Discovery of a potent CDKs/FLT3 PROTAC with enhanced differentiation and proliferation inhibition for AML” (Eur J Med Chem, 2024):
# Active and inactive are the calls of the source. No cut-off for these calls is given here.
# Tests used:
# [1] = biological target: T1, Protein cereblon/Cyclin-dependent kinase 2 (Homo sapiens, UniProt P24941+Q96SW2); assay: Protac activity at CRBN/CDK2 in human HL-60 cells assessed as induction of CDK2 degradation measured after 24 hrs by Western blot analysis; type: cell-based
# [2] = tested on: Protein cereblon/Receptor-type tyrosine-protein kinase FLT3 (Homo sapiens), P36888+Q96SW2 [UNDEFINED MUTATION]; assay: Protac activity at CRBN/FLT3-ITD mutant in human THP-1 cells assessed as induction of FLT3 degradation at 4 to 64 nM measured after 3 days by Western blot analysis; type: cell-based; details: dose 4-64 nM, time 3.0 day
# Protein cereblon/Receptor-type tyrosine-protein kinase FLT3 (Homo sapiens), P36888+Q96SW2 [UNDEFINED MUTATION], sequence (P36888 whole entry, looked up, change not shown): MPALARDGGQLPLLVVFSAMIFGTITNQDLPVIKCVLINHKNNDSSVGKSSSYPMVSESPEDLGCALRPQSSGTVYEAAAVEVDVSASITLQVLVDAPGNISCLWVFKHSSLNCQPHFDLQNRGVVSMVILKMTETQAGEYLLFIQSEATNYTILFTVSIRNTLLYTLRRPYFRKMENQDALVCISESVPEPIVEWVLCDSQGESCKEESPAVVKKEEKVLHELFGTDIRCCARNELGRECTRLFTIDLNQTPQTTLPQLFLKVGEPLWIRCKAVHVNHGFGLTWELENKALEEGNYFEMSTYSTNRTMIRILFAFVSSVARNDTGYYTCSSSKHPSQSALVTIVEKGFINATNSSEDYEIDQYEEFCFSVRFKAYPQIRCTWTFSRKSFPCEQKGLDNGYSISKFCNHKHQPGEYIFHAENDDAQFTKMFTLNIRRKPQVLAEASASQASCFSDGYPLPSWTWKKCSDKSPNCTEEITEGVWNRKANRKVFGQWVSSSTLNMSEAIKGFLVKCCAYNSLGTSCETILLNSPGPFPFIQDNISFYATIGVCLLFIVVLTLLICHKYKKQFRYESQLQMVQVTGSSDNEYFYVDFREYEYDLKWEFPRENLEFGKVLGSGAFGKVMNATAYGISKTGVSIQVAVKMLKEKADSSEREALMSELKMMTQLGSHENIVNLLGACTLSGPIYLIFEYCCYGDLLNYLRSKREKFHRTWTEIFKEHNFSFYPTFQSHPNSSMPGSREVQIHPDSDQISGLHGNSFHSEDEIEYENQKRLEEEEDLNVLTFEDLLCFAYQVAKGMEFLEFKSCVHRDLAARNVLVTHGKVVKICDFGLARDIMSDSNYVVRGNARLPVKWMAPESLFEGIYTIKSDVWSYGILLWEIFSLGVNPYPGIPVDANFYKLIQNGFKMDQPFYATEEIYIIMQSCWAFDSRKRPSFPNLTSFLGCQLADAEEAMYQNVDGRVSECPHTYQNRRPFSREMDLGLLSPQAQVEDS
# Protein cereblon/Receptor-type tyrosine-protein kinase FLT3 (Homo sapiens), P36888+Q96SW2 [UNDEFINED MUTATION], sequence (Q96SW2 whole entry, looked up, change not shown): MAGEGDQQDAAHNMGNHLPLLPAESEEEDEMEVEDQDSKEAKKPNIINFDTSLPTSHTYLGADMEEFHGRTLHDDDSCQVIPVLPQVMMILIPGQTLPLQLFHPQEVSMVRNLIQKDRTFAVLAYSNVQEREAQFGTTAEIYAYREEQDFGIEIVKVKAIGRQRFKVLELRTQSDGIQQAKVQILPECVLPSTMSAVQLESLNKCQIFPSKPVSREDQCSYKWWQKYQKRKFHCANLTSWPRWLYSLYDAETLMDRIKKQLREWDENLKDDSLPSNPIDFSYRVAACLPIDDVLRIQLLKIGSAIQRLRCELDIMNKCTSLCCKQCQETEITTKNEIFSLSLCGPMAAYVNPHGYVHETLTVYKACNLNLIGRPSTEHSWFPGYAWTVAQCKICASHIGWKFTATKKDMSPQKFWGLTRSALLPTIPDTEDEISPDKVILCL
# [3] = biological target: T2, Protein cereblon/Cyclin-dependent kinase 5 (Homo sapiens) (UniProt Q00535+Q96SW2); assay: Protac activity at CRBN/CDK5 in human THP-1 cells assessed as induction of CDK5 degradation at 4 to 64 nM measured after 3 days by Western blot analysis; type: cell-based; details: dose 4-64 nM, time 3.0 day
# T2 sequence (Q00535 whole entry, looked up): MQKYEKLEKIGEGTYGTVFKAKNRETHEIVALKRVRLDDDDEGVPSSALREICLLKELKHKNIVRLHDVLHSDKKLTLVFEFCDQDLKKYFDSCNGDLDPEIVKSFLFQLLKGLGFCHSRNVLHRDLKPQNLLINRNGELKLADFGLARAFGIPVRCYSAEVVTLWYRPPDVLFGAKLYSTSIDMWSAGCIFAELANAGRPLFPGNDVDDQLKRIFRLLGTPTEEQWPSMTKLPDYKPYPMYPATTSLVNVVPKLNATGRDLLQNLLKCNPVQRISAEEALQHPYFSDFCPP
# T2 sequence (Q96SW2 whole entry, looked up): as the sequence (Q96SW2 whole entry, looked up, change not shown) above
# HL-60 [4] = assay: Induction of pro-differentiation of human HL-60 cells assessed as CD11b expression at 2 nM measured after 5 days by immunostaining-based flow cytometry (reference value: 10.08 to 10.33%); type: functional; details: time 5 day
# [5] = biological target: Protein cereblon/Cyclin-dependent kinase 9 (Homo sapiens, UniProt P50750+Q96SW2); assay: Protac activity at CRBN/CDK9 in human THP-1 cells assessed as induction of CDK9 degradation at 4 to 64 nM measured after 3 days by Western blot analysis; type: cell-based; details: dose 4-64 nM, time 3.0 day
# Protein cereblon/Cyclin-dependent kinase 9, sequence (P50750 whole entry, looked up): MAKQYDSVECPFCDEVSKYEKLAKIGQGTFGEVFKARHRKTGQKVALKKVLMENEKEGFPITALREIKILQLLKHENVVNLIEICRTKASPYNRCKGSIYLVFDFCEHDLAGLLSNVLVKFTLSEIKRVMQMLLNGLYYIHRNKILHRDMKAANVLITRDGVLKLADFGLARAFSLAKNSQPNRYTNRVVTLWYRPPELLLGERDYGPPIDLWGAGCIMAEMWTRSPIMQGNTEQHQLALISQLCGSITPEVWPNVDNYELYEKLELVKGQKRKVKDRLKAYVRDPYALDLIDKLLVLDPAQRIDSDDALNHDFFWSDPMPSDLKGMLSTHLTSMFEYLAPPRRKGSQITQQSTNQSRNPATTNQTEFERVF
# Protein cereblon/Cyclin-dependent kinase 9, sequence (Q96SW2 whole entry, looked up): as the sequence (Q96SW2 whole entry, looked up, change not shown) above
# [6] = biological target: T1, Protein cereblon/Cyclin-dependent kinase 2; assay: Protac activity at CRBN/CDK2 in human HL-60 cells assessed as induction of CDK2 degradation at 10 nM measured after 24 hrs in presence of CDK2 inhibitor FN-150 by Western blot analysis; type: cell-based
# [7] = biological target: T1, Protein cereblon/Cyclin-dependent kinase 2; assay: Protac activity at CRBN/CDK2 in human HL-60 cells assessed as induction of CDK2 degradation by Western blot analysis relative to control; type: cell-based
# [8] = tested on: Protein cereblon/Receptor-type tyrosine-protein kinase FLT3 (Homo sapiens), P36888+Q96SW2 [UNDEFINED MUTATION]; assay: Protac activity at CRBN/FLT3-ITD mutant in human Kasumi 1 cells assessed as induction of FLT3 degradation at 2 to 32 nM measured after 3 days by Western blot analysis; type: cell-based; details: dose 2-32 nM, time 3.0 day
# [9] = biological target: T3, Protein cereblon/Cyclin-dependent kinase 1 (Homo sapiens) (UniProt P06493+Q96SW2); assay: Protac activity at CRBN/CDK1 in human MV4-11 cells assessed as induction of CDK1 degradation at 2 to 32 nM measured after 3 days by Western blot analysis; type: cell-based; details: dose 2-32 nM, time 3.0 day
# T3 sequence (P06493 whole entry, looked up): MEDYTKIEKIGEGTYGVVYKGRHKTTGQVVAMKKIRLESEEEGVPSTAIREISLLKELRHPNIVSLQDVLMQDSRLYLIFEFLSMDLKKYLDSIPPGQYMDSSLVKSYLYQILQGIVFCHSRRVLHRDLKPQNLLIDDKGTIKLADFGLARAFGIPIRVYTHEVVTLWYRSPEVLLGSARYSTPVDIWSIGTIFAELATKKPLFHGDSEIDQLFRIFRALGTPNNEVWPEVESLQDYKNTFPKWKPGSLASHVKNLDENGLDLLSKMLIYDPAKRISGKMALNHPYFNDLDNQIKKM
# T3 sequence (Q96SW2 whole entry, looked up): as the sequence (Q96SW2 whole entry, looked up, change not shown) above
# [10] = biological target: T4, Protein cereblon/Cyclin-dependent kinase 6 (Homo sapiens, UniProt Q00534+Q96SW2); assay: Protac activity at CRBN/CDK6 in human MV4-11 cells assessed as induction of CDK6 degradation at 2 to 32 nM measured after 3 days by Western blot analysis; type: cell-based; details: dose 2-32 nM, time 3.0 day
# Target sequence in this assay (Q00534 whole entry, looked up): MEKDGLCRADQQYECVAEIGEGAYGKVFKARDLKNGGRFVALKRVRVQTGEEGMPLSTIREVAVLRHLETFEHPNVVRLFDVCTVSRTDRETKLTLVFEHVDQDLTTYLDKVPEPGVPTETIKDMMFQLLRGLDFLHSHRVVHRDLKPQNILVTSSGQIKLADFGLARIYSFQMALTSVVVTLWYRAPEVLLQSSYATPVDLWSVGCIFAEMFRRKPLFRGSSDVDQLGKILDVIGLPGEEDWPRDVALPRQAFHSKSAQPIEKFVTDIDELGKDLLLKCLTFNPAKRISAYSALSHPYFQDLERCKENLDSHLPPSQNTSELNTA
# Target sequence in this assay (Q96SW2 whole entry, looked up): as the sequence (Q96SW2 whole entry, looked up, change not shown) above
# HL-60 [11] = assay: Induction of pro-differentiation of human HL-60 cells assessed as increase in CD11b expression at 6.25 nM measured after 3 days by immunostaining-based flow cytometry relative to 500 nM CPS2; type: functional; details: time 3 day
# [12] = biological target: T5, Protein cereblon/Cyclin-dependent kinase 4 (Homo sapiens, UniProt P11802+Q96SW2); assay: Protac activity at CRBN/CDK4 in human Kasumi 1 cells assessed as induction of CDK4 degradation at 2 to 32 nM measured after 3 days by Western blot analysis; type: cell-based; details: dose 2-32 nM, time 3.0 day
# T5 sequence (P11802 2-303 limits assumed): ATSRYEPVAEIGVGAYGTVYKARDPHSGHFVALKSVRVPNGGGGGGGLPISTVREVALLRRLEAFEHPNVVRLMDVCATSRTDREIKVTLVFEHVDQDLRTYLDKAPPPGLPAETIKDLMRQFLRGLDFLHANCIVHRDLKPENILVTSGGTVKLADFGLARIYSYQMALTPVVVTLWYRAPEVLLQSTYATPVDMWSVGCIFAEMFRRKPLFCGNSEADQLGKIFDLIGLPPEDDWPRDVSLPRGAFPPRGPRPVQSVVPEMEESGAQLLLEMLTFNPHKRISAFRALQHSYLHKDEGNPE
# T5 sequence (Q96SW2 whole entry partner): as the sequence (Q96SW2 whole entry, looked up, change not shown) above
# Kasumi 1 = assay: Antiproliferative activity against human Kasumi 1 cells measured after 1 to 3 days by CCK-8 assay; type: functional, cell-based
# [13] = biological target: T2, Protein cereblon/Cyclin-dependent kinase 5 (Homo sapiens); assay: Protac activity at CRBN/CDK5 in human HL-60 cells assessed as induction of CDK5 degradation at 4 to 64 nM measured after 3 days by Western blot analysis; type: cell-based; details: dose 4-64 nM, time 3.0 day
# HL-60 [14] = assay: Induction of pro-differentiation of human HL-60 cells assessed as CD11b expression at 4 nM measured after 3 days by immunostaining-based flow cytometry (reference value: 8.32 to 10.55%); type: functional; details: time 3 day
# [15] = biological target: T3, Protein cereblon/Cyclin-dependent kinase 1 (Homo sapiens); assay: Protac activity at CRBN/CDK1 in human THP-1 cells assessed as induction of CDK1 degradation at 4 to 64 nM measured after 3 days by Western blot analysis; type: cell-based; details: dose 4-64 nM, time 3.0 day
# HL-60 [16] = assay: Induction of pro-differentiation of human HL-60 cells assessed as CD11b expression at 1 nM measured after 5 days by immunostaining-based flow cytometry (reference value: 10.08 to 10.33%); type: functional; details: time 5 day
# THP-1 = assay: Antiproliferative activity against human THP-1 cells measured after 1 to 3 days by CCK-8 assay; type: functional, cell-based
# HL-60 [17] = assay: Antiproliferative activity against human HL-60 cells measured after 1 to 3 days by CCK-8 assay; type: functional, cell-based
# [18] = biological target: T1, Protein cereblon/Cyclin-dependent kinase 2; assay: Protac activity at CRBN/CDK2 in human HL-60 cells assessed as induction of CDK2 degradation at 10 nM measured after 24 hrs in presence of NEDD8-activated E1 enzyme inhibitor MLN4924 by Western blot analysis; type: cell-based
# [19] = biological target: T4, Protein cereblon/Cyclin-dependent kinase 6; assay: Protac activity at CRBN/CDK6 in human Kasumi 1 cells assessed as induction of CDK6 degradation at 2 to 32 nM measured after 3 days by Western blot analysis; type: cell-based; details: dose 2-32 nM, time 3.0 day
# Target sequence in this assay (Q00534 whole entry, looked up): as the sequence (Q00534 whole entry, looked up) above
# Target sequence in this assay (Q96SW2 whole entry, looked up): as the sequence (Q96SW2 whole entry, looked up, change not shown) above
# [20] = biological target: T1, Protein cereblon/Cyclin-dependent kinase 2; assay: Protac activity at CRBN/CDK2 in human HL-60 cells assessed as induction of CDK2 degradation at 10 nM measured after 24 hrs in presence of proteasome inhibitor MG132 by Western blot analysis; type: cell-based
# [21] = biological target: T1, Protein cereblon/Cyclin-dependent kinase 2; assay: Protac activity at CRBN/CDK2 in human HL-60 cells assessed as induction of CDK2 degradation measured after 24 hrs by Western blot analysis relative to control; type: cell-based
# [22] = biological target: T2, Protein cereblon/Cyclin-dependent kinase 5 (Homo sapiens); assay: Protac activity at CRBN/CDK5 in human Kasumi 1 cells assessed as induction of CDK5 degradation at 2 to 32 nM measured after 3 days by Western blot analysis; type: cell-based; details: dose 2-32 nM, time 3.0 day
# [23] = tested on: Protein cereblon/Receptor-type tyrosine-protein kinase FLT3 (Homo sapiens), P36888+Q96SW2 [UNDEFINED MUTATION]; assay: Protac activity at CRBN/FLT3-ITD mutant in human MV4-11 cells assessed as induction of FLT3 degradation at 2 nM measured after 3 days by Western blot analysis relative to control; type: cell-based; details: time 3.0 day
# [24] = biological target: T5, Protein cereblon/Cyclin-dependent kinase 4; assay: Protac activity at CRBN/CDK4 in human MV4-11 cells assessed as induction of CDK4 degradation at 2 to 32 nM measured after 3 days by Western blot analysis; type: cell-based; details: dose 2-32 nM, time 3.0 day
# [25] = biological target: Protein cereblon/Receptor-type tyrosine-protein kinase FLT3 (Homo sapiens, UniProt P36888+Q96SW2); assay: Protac activity at CRBN/FLT3-ITD in human HL-60 cells assessed as induction of FLT3 degradation measured after 3 days by Western blot analysis; type: cell-based
# Protein cereblon/Receptor-type tyrosine-protein kinase FLT3, sequence (P36888 whole entry, looked up, change not shown): as the sequence (P36888 whole entry, looked up, change not shown) above
# Protein cereblon/Receptor-type tyrosine-protein kinase FLT3, sequence (Q96SW2 whole entry, looked up, change not shown): as the sequence (Q96SW2 whole entry, looked up, change not shown) above
# [26] = biological target: T3, Protein cereblon/Cyclin-dependent kinase 1 (Homo sapiens); assay: Protac activity at CRBN/CDK1 in human HL-60 cells assessed as induction of CDK1 degradation at 4 to 64 nM measured after 3 days by Western blot analysis; type: cell-based; details: dose 4-64 nM, time 3.0 day
# HL-60 [27] = assay: Induction of pro-differentiation of human HL-60 cells assessed as CD11b expression at 1 nM measured after 3 days by immunostaining-based flow cytometry (reference value: 8.32 to 10.55%); type: functional; details: time 3 day
# [28] = biological target: T1, Protein cereblon/Cyclin-dependent kinase 2; assay: Protac activity at CRBN/CDK2 in human HL-60 cells assessed as induction of CDK2 degradation at 10 nM measured at 12 hrs by Western blot analysis; type: cell-based
# [29] = biological target: T4, Protein cereblon/Cyclin-dependent kinase 6; assay: Protac activity at CRBN/CDK6 in human HL-60 cells assessed as induction of CDK6 degradation measured after 3 days by Western blot analysis; type: cell-based
# Target sequence in this assay (Q00534 whole entry): as the sequence (Q00534 whole entry, looked up) above
# Target sequence in this assay (Q96SW2 whole entry): as the sequence (Q96SW2 whole entry, looked up, change not shown) above
structure (smiles),measurement,setting,value
O=C1CCC(N2C(=O)c3ccc(N4CCC(CN5CCN(Cc6ccc(NC(=O)c7n[nH]cc7Nc7ncnc8[nH]ccc78)cc6)CC5)CC4)cc3C2=O)C(=O)N1 (stereo unspecified),DC50,[1],18.7 nM
same,Activity,[2],Active
same,Activity,[3],inactive
same,Activity,HL-60 [4],36.57%
same,Activity,[5],Active
same,Activity,[6],inactive
same,Emax,[7],81.9%
same,Activity,[8],Active
same,Activity,[9],inactive
same,Activity,[10],Active
same,fold change (FC),HL-60 [11],2.2
same,Activity,[12],Active
same,IC50,Kasumi 1,3.99 nM
same,Activity,[13],inactive
same,Activity,HL-60 [14],43.94%
same,Activity,[15],inactive
same,Activity,HL-60 [16],29.85%
same,IC50,THP-1,37.1 nM
same,IC50,HL-60 [17],10.5 nM
same,Activity,[18],inactive
same,Activity,[19],Active
same,Activity,[20],inactive
same,Emax,[21],86.8%
same,Activity,[22],inactive
same,Activity,[23],77%
same,Activity,[24],Active
same,DC50,[25],5.69 nM
same,Activity,[26],inactive
same,Activity,HL-60 [27],23.74%
same,Activity,[28],Active
same,DC50,[29],2.71 nM
